A short description of this data set: Pharmacokinetic evaluation in CD-1 mice (IV and PO). Type of data set: in vivo. The following applies: male, mouse, plasma; for Vd: read-out: Vss. The protocol: Using mice as test animals, the compounds of the present disclosure were administered via intravenous bolus and oral injection. Plasma samples were collected at specific time points. Compound concentrations in plasma were determined by LC-MS/MS, and PK parameters were calculated to characterize the pharmacokinetic behavior of the compounds of the present disclosure in plasma.
CD-1 mice, male, supplied by Zhejiang Vital River Laboratory Animal Technology Co., Ltd.
Dosing regimen for CD-1 mice: Both the IV (intravenous) and PO (oral) experimental groups consisted of 3 mice. The IV group was administered at a dose of 1 mg/kg and a volume of 5 mL/kg. The PO group was administered at a dose of 30 mg/kg and a volume of 10 mL/kg. The dosing vehicle was 5% (v/v) DMSO/10% (v/v) Solutol/85% (v/v) saline.
Following administration, 0.025 mL of blood was collected via venipuncture at the following time points: 0.0833 (IV), 0.25, 0.5, 1, 2, 4, 8, and 24 hours. Blood samples were collected into EDTA-K2 tubes and centrifuged at 4°C and 2000 g for 10 minutes to separate plasma, which was stored at -80°C.
Mouse plasma processing: • 1) 15 µL of plasma was mixed with 200 µL of acetonitrile for protein precipitation. The mixture was vortexed and centrifuged for 15 minutes. • 2) The supernatant after processing was diluted with water and analyzed by LC/MS/MS to determine the concentration of the test compound.
Pharmacokinetic parameters were calculated using WinNonlin 6.1. Specifically, Cmax represents maximum plasma concentration, CL represents clearance, Vss represents volume of distribution at steady state, T1/2 represents terminal elimination half-life, MRTInf represents mean residence time, AUC represents area under the plasma concentration-time curve, and F represents bioavailability. Table 18: Pharmacokinetic parameters of the compounds of the present disclosure in CD-1 mice

SMILES strings stand for the structures.

A word on the AUC: it is the area under the concentration-time curve, a measure of exposure. Higher therefore signals high exposure. As usually defined, the MRT inf is a mean duration of stay, worked out from the concentration-time curve. As a reminder, the half-life is how long it takes for the measured level to halve. Low values mean rapid decline, high ones slow decline. In general, Cmax refers to the highest concentration seen after dosing. Consider `CCc1nc2n(-c3nnc(C(F)F)s3)c3cc(S(=O)(=O)NC4(C)CC4)cc(N4C[C@H](C)N[C@@H](C)C4)c3n2n1` [Compound 065R], for which, where the note is “IV, 1 mg/kg”, the exposure (AUC) was found to be 0.555 µM·h, the MRT inf amounted to 2.3 h, the clearance worked out at 50 mL/min/kg and the half-life is 2.2 h. Moreover, the Vd (IV, 1 mg/kg) worked out at 6.8 L/kg. Where the note is “PO, 30 mg/kg”, this compound gave an AUC of 11.2 µM·h, a Cmax of 1610 nM, an MRT inf of 4.6 h and a half-life of 2.4 h.
As to `C[C@H]1CN(c2cc(S(=O)(=O)NC3(C)CC3)cc3c2n2nc(C(F)(F)F)nc2n3-c2nnc(C(F)F)s2)C[C@H](C)N1` [Compound 065W], where the note is “IV, 1 mg/kg”, the exposure (AUC) was found to be 1.26 µM·h, the MRT inf came to 5.6 h, the clearance was determined as 22 mL/min/kg and the half-life is 5.2 h. Besides, the Vd (IV, 1 mg/kg) was 7.2 L/kg. In addition, where the note is “PO, 30 mg/kg”, the AUC was 18.3 µM·h, the peak level (Cmax) was 1980 nM, the MRT inf was determined as 5.7 h and the half-life was 3.3 h.

The values above are taken from EP4800013A1, “PARG INHIBITOR” (Shanghai Qilu Pharmaceutical Research and Development …, priority 2023, dated 2025).
